From PubChem BioAssay AID2060499 (Molecular Pharmacology Branch, DTP, NCI, 2025)

Tested on: 777334-354-R2-J4-PDC tumor spheroids with HUVEC/MSC, viability
Assay: Anticancer human tumor 777334-354-R2-J4-PDC patient-derived pancreatic adenocarcinoma cell line growth inhibition [GQUAD]
Details: for IC50: curve of first compound; for viability, T/C: stronger effect = lower value
Description: DNA G-quadruplex Stabilizer Agents in Combinations in Complex Spheroids
A high-throughput screen of multi-cell type tumor spheroids was designed to identify active combinations of DNA G-quadruplex stabilizer agents and targeted small molecules. Complex spheroids include a stromal component modeled by human endothelial cells (HUVEC) and fibroblasts modeled by human mesenchymal stem cells (MSCs). The concentration ranges selected for each drug and investigational agent were based upon clinically achievable concentrations if the clinical Cmax of the agent was known.
Compounds. The drugs and investigational agents: pidnarulex (CX-5461; NSC782164), APTO-253 (NSC789042), BRACO-19 (NSC847499), peposertib (NSC802822), ceralasertib (NSC780249), elimusertib (NSC800525), camonsertib (NSC841442), AZD-1390 (NSC803789), olaparib (NSC753686), talazoparib (NSC767125), ART-558 (NSC835418), sotorasib (NSC818433), MRTX-1133 (NSC836407), SN-38 (NSC673596), topotecan (NSC609699), etoposide (NSC141540), doxorubicin (NSC123127), gemcitabine (NSC613327), 5-fluorouracil (NSC19893), paclitaxel (NSC125973), vemurafenib (NSC761431), panobinostat (NSC761190), R-306465 (JNJ-16241199; NSC773264), adavosertib (NSC754352), TP-3654 (NSC805149), carboplatin (NSC241240), KSQ-4279 (NSC840948), and staurosporine (NSC755774) were obtained from the National Cancer Institute (NCI) Developmental Therapeutics Program Chemical Repository (34). The FDA-approved anticancer drug set is available from the NCI Developmental Therapeutics Program. […] The stock solutions were prepared in dimethyl sulfoxide (DMSO, Sigma-Aldrich, St. Louis, MO, cat. D2650) at 800-fold the tested concentration and stored at -70 degrees C prior to their use. All drugs and investigational agents were tested over a range starting from a high concentration at or near the clinical Cmax and decreasing in half-log increments. If the clinical Cmax for an agent had not been determined, the highest concentration tested was 10 microM.
2.3 Cell Culture. All cells were maintained in an incubator at 37 degrees C and 5% CO2 with 95% humidity. The PDC lines were cultured according to standard operating procedures established by the NCI PDMR. All PDCs were thawed and cultured in Matrigel-coated flasks prepared with a working solution of 1X Ham's F-12 nutrient mix, without supplementation (Invitrogen, cat. 11765054), 100 U/mL penicillin-streptomycin (Invitrogen, cat. 15140122), and 2.5% Matrigel (Corning Inc., cat. 354248) for the first three passages. The 857933-349-R-J2-PDC line was cultured in 6C/Colon 1B media, which includes advanced DMEM/F-12 (Thermo Fisher Scientific, cat. 12634028), 10 mM HEPES (Thermo Fisher Scientific, cat. 15630080), 1X GlutaMAX supplement (Thermo Fisher Scientific, cat. 35050061), 0.1 mg/mL primocin (InvivoGen, cat. ant-pm-2), 10% defined fetal bovine serum, heat inactivated (HyClone Laboratories Inc., cat. SH30070.03HI), 50% L-WRN conditioned media (ATCC, cat. CRL-3276), 1.25 mM N-Acetyl-L-cysteine (Sigma-Aldrich, cat. A9165), 10 mM nicotinamide (Sigma-Aldrich, cat. N0636), 1X B-27 supplement (Thermo Fisher Scientific, cat. 17504044), 1X N-2 supplement (Thermo Fisher Scientific, cat. 17502048), 10 microM Y-27632 dihydrochloride (Tocris Bioscience, cat. 1254), and 50 ng/mL human EGF recombinant protein (Thermo Fisher Scientific, cat. PHG0311). The 485176-168-R4-J1-PDC line was cultured in Panc media, which includes all 6C/Colon 1B media components plus 100 ng/mL human FGF-10 (Thermo Fisher Scientific, cat. 100-26), 500 nM SB-431542 (Selleckchem, cat. S1067), and gastrin (Tocris, cat. 3006).
[…]
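Note: spheroids exposed to compounds for 7 days before readout.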

Structure (SMILES): Cc1cccc(N(C)C(=O)C2C(O)CCN2c2nc(C)cc(C(F)(F)F)c2C#N)c1 (configuration not stated) + Cc1cnc(CNC(=O)c2c(=O)c3ccc(N4CCCN(C)CC4)nc3n3c2sc2ccccc23)cn1
- IC50 (second compound 0.0316 µM): > 10 µM
- IC50 (second compound 0.1 µM): > 10 µM
- IC50 (second compound 0.316 µM): > 10 µM
- IC50 (second compound 1 µM): > 10 µM
- IC50 (second compound 3.16 µM): > 10 µM
- IC50 (second compound 10 µM): > 10 µM
- viability, T/C (second compound 0.0316 µM, first compound 0.0316 µM): 103%
- viability, T/C (second compound 0.0316 µM, first compound 0.1 µM): 91.3%
- viability, T/C (second compound 0.0316 µM, first compound 0.316 µM): 107%
- viability, T/C (second compound 0.0316 µM, first compound 1 µM): 94.5%
- viability, T/C (second compound 0.0316 µM, first compound 3.16 µM): 105%
- viability, T/C (second compound 0.0316 µM, first compound 10 µM): 100%
- viability, T/C (second compound 0.1 µM, first compound 0.0316 µM): 108%
- viability, T/C (second compound 0.1 µM, first compound 0.1 µM): 92.2%
- viability, T/C (second compound 0.1 µM, first compound 0.316 µM): 93.6%
- viability, T/C (second compound 0.1 µM, first compound 1 µM): 83.5%
- viability, T/C (second compound 0.1 µM, first compound 3.16 µM): 95%
- viability, T/C (second compound 0.1 µM, first compound 10 µM): 85%
- viability, T/C (second compound 0.316 µM, first compound 0.0316 µM): 82.6%
- viability, T/C (second compound 0.316 µM, first compound 0.1 µM): 84.9%
- viability, T/C (second compound 0.316 µM, first compound 0.316 µM): 78.1%
- viability, T/C (second compound 0.316 µM, first compound 1 µM): 84.8%
- viability, T/C (second compound 0.316 µM, first compound 3.16 µM): 80.7%
- viability, T/C (second compound 0.316 µM, first compound 10 µM): 91.7%
- viability, T/C (second compound 1 µM, first compound 0.0316 µM): 65.3%
- viability, T/C (second compound 1 µM, first compound 0.1 µM): 73%
- viability, T/C (second compound 1 µM, first compound 0.316 µM): 79.5%
- viability, T/C (second compound 1 µM, first compound 1 µM): 75.8%
- viability, T/C (second compound 1 µM, first compound 3.16 µM): 71.2%
- viability, T/C (second compound 1 µM, first compound 10 µM): 65.5%
- viability, T/C (second compound 3.16 µM, first compound 0.0316 µM): 59.3%
- viability, T/C (second compound 3.16 µM, first compound 0.1 µM): 67%
- viability, T/C (second compound 3.16 µM, first compound 0.316 µM): 58.4%
- viability, T/C (second compound 3.16 µM, first compound 1 µM): 62.3%
- viability, T/C (second compound 3.16 µM, first compound 3.16 µM): 67.2%
- viability, T/C (second compound 3.16 µM, first compound 10 µM): 60.6%
- viability, T/C (second compound 10 µM, first compound 0.0316 µM): 63%
- viability, T/C (second compound 10 µM, first compound 0.1 µM): 63.2%
- viability, T/C (second compound 10 µM, first compound 0.316 µM): 59.6%
- viability, T/C (second compound 10 µM, first compound 1 µM): 64.5%
- viability, T/C (second compound 10 µM, first compound 3.16 µM): 64.5%
- viability, T/C (second compound 10 µM, first compound 10 µM): 62.7%
